One test concerns the target T1, Kv1.3 potassium channel (Homo sapiens, UniProt P22001).
T1 construct: expressed in transfected cells
Kind of test: Kv1.3 potassium channel blocker activity, automated whole-cell patch clamp (Patchliner). The following applies: CHO-K1 cells stably expressing Kv1.3; whole cell current inhibition; read-out: Kv1.3_IC50. It counts as cell-based. The method in brief: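 CHO-K1 cells stably expressing Kv1.3, automated whole-cell patch clamp. Currents evoked by 100 ms steps from −90 mV holding to +40 mV at 0.1 Hz, sampled at 10 kHz unfiltered, P/4 leak subtraction; peak current inhibition measured, compound incubation ≤10 s between pulse trains.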

A further test has as its target hERG channel (Homo sapiens, UniProt Q12809). Kind of test: hERG electrophysiology, automated whole-cell patch clamp (Patchliner).

T1 sequence (P22001 whole entry): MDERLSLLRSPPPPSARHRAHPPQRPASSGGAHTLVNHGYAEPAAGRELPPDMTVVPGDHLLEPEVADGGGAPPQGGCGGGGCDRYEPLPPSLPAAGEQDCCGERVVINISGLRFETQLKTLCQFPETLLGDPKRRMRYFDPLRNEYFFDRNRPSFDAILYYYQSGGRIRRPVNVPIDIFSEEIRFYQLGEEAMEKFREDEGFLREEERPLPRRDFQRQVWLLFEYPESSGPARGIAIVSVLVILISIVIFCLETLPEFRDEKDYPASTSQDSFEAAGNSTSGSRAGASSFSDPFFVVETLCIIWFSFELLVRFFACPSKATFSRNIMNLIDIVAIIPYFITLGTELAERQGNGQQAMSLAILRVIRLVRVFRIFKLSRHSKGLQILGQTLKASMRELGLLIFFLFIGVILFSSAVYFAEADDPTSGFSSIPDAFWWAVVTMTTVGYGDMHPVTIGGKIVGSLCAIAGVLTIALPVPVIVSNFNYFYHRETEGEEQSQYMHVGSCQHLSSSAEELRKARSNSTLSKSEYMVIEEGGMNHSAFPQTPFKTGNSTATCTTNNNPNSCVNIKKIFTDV
hERG channel, sequence (Q12809 whole entry): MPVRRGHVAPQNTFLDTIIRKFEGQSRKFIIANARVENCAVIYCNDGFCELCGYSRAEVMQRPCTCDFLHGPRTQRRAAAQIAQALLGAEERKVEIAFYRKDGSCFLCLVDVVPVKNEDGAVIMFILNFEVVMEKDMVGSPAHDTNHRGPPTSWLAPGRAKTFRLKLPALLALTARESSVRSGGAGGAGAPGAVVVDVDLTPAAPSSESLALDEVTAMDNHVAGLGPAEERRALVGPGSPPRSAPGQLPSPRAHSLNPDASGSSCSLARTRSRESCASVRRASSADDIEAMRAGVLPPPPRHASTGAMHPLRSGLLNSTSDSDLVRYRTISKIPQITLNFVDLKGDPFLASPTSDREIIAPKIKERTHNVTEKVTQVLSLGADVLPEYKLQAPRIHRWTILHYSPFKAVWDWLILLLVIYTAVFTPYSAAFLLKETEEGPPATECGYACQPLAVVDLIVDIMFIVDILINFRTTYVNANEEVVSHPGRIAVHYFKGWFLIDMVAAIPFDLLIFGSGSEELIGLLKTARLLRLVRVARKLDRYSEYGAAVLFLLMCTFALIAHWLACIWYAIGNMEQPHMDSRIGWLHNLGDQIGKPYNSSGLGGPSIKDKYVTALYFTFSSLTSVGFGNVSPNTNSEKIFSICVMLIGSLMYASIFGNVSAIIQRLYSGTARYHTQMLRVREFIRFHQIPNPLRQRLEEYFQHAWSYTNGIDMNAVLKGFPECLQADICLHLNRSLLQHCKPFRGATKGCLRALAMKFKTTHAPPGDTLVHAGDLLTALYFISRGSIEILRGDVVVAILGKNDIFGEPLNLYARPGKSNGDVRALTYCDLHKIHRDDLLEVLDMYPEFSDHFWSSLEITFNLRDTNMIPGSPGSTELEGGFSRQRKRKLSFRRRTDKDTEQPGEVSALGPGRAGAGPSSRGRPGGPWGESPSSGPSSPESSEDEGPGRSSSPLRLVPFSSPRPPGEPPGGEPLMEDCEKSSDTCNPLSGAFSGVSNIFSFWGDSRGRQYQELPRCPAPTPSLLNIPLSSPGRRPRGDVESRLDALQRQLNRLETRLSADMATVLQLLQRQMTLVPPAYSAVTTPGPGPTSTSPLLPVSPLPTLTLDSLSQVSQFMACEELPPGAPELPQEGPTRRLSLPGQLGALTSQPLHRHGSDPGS

Consider `N[C@@H](c1cc(Cl)c(Cl)cc1O)C1CCN(C(=O)c2cnoc2)CC1` [Compound 205, 2-[(R)-amino[1-(1,2-oxazole-4-carbonyl)piperidin-4-yl]methyl]-4,5-dichlorophenol], for which the IC50 at Kv1.3 potassium channel is < 500 nM; against hERG channel, > 30 µM.
Consider `Cc1cc(O)c([C@H](N)C2CCN(C(=O)[C@@H]3OCC[C@@H]3O)CC2)cc1Cl` [Compound 335, (2R,3S)-2-[4-[(R)-amino(5-chloro-2-hydroxy-4-methylphenyl)methyl]piperidine-1-carbonyl]oxolan-3-ol trifluoroacetic acid], for which the figures for the IC50 at Kv1.3 potassium channel and at hERG channel were < 500 nM and > 30 µM, respectively.
Consider `N[C@@H](c1cc(Cl)c(Cl)cc1O)C1CCN(C(=O)c2ccc(=O)[nH]c2)CC1` [Compound 305, 5-[4-[(R)-amino(4,5-dichloro-2-hydroxyphenyl)methyl]piperidine-1-carbonyl]-1,2-dihydropyridin-2-one trifluoroacetic acid], for which the IC50 on Kv1.3 potassium channel is < 500 nM; at hERG channel, > 30 µM.
The corresponding values for `Cc1n[nH]c(C)c1C(=O)N1CCC([C@@H](N)c2cc(Cl)c(Cl)cc2O)CC1` [Compound 159, 2-[(R)-amino[1-(3,5-dimethyl-1H-pyrazole-4-carbonyl)piperidin-4-yl]methyl]-4,5-dichlorophenol] are < 10000 nM and > 30 µM.
As to `N[C@@H](c1c(O)cc(Cl)c(Cl)c1F)C1CCN(C(=O)c2ccc(=O)[nH]c2)CC1` [Compound 257, 5-[4-[(R)-amino(3,4-dichloro-2-fluoro-6-hydroxyphenyl)methyl]piperidine-1-carbonyl]-1H-pyridin-2-one Trifluoroacetic Acid], the IC50 was < 500 nM on Kv1.3 potassium channel and > 30 µM at hERG channel.
As for `NC(c1cc(Cl)c(Cl)cc1O)C1CCN(c2ccccn2)CC1` (stereo not shown) [Compound 70, 2-[amino[1-(pyridin-2-yl)piperidin-4-yl]methyl]-4,5-dichlorophenol Trifluoroacetic Acid], the IC50 is < 500 nM on Kv1.3 potassium channel and < 30 µM on hERG channel.
For `COC[C@@H](O)C(=O)N1CCC([C@@H](N)c2cc(Cl)c(Cl)cc2O)CC1` [Compound 197, (2R)-1-[4-[(R)-amino(4,5-dichloro-2-hydroxyphenyl)methyl]piperidin-1-yl]-2-hydroxy-3-methoxypropan-1-one trifluoroacetic acid] the same measures were < 10000 nM and > 30 µM.
For `NC(c1c(O)ccc2ccccc12)C1CCNCC1` (stereo not shown) [Compound 34, 1-(amino(piperidin-4-yl)methyl)naphthalen-2-ol Trifluoroacetic Acid] the same measures were < 30000 nM and > 30 µM.
For `O=C([C@@H]1CCNC1)N1CCC(Cc2cc(Cl)c(Cl)cc2O)CC1` [Compound 111, 4,5-dichloro-2-([1-[(3R)-pyrrolidine-3-carbonyl]piperidin-4-yl]methyl)phenol Trifluoroacetic Acid] the same measures were < 500 nM and < 30 µM.
Consider `O=C([C@@H]1CCNC1)N1CCC(Cc2c(O)ccc(Cl)c2Cl)CC1` [Compound 122, 3,4-dichloro-2-([1-[(3R)-pyrrolidine-3-carbonyl]piperidin-4-yl]methyl)phenol Trifluoroacetic Acid], for which the IC50 at Kv1.3 potassium channel is < 500 nM; against hERG channel, < 30 µM.
With `N[C@@H](c1cc(Cl)c(Cl)cc1O)C1CCN(C(=O)[C@H]2CCC(=O)N2)CC1` [Compound 165, (5R)-5-[4-[(R)-amino(4,5-dichloro-2-hydroxyphenyl)methyl]piperidine-1-carbonyl] pyrrolidin-2-one trifluoroacetic acid], the IC50 is < 500 nM on Kv1.3 potassium channel and > 30 µM on hERG channel.
The corresponding values for `N[C@@H](c1cc(Cl)c(Cl)cc1O)C1CCN(C(=O)[C@@H]2CNC(=O)C2)CC1` [Compound 224, (4S)-4-[4-[(R)-amino(4,5-dichloro-2-hydroxyphenyl)methyl]piperidine-1-carbonyl] pyrrolidin-2-one trifluoroacetic acid] are < 500 nM and > 30 µM.
As for `CC(C)C(=O)N1CCC(C(N)c2cc(Cl)c(Cl)cc2O)CC1` (stereo not shown) [Compound 43, 1-[4-[amino(4,5-dichloro-2-hydroxyphenyl)methyl]piperidin-1-yl]-2-methylpropan-1-one Trifluoroacetic Acid], the values for the IC50 on Kv1.3 potassium channel and at hERG channel were < 10000 nM and < 30 µM, respectively.
As to `Cc1cc(O)c([C@H](N)C2CCN(C(=O)c3c[nH]c(=O)c(C)c3)CC2)cc1Cl` [Compound 262, 5-[4-[(R)-amino (5-chloro-2-hydroxy-4-methylphenyl)methyl]piperidine-1-carbonyl]-3-methyl-1H-pyridin-2-one trifluoroacetic acid], the IC50 at Kv1.3 potassium channel was < 500 nM; against hERG channel, > 30 µM.

(Values after patent US20230023559A1, “ARYLMETHYLENE HETEROCYCLIC COMPOUNDS AS KV1.3 POTASSIUM SHAKER CHANNEL BLOCKERS” (D. E. Shaw Research, LLC, priority 2019, published 2023).)
